Laboratory results published in article PMC10394516, “The pharmacokinetic profile of brensocatib and its effect on pharmacodynamic biomarkers including NE, PR3, and CatG in various rodent species” (Frontiers in Pharmacology, 2023).

Key:
NE [1] = assay: Bone marrow NE activity after repeated dosing, C57BL/6 mice; assay type: in vivo; details: 7 days
Procedure: (§1) Briefly, animals were weighed and randomized into different treatment groups. In total, three different dosing levels of brensocatib were tested in each species and strain; each QD dosing level was equivalent to 1.5-times the matching daily BID dose. For BID dosing, the second daily dose was administered 8-h post the morning dose. C57BL/6 mice were dosed either BID or QD for 7 consecutive days at 0/0, 0.5/0.75, 2/3, and 20/30 mg/kg/day (BID/QD). BALB/c mice were dosed for 7 consecutive days at 0/0, 0.2/0.3, 2/3, and 20/30 mg/kg/day (BID/QD). SD rats were dosed for 9 consecutive days at 0/0, 0.2/0.3, 2/3, and 20/30 mg/kg/day (BID/QD). Wistar rats were dosed for 7 consecutive days at 0/0, 0.2/0.3, 2/3, and 20/30 mg/kg/day (BID/QD).
(§2) At the completion of the study, animals were sacrificed 16–24 h post their final dose. The hind limb bones (femurs and tibias) were collected at necropsy for bone marrow analysis of NSP activities by kinetic enzymatic assays ([Basso et al., 2022]). See section Quantification of Bone Marrow NSP Activities for details.
(§3) For the mice, each animal had the femurs and tibias of both hind limbs harvested. For the rat, the femur and tibia from a single hind limb per animal was harvested. Bones were kept on wet ice until processing for bone marrow collection. In brief, bone cutters were used to cut the epiphysis (knobby ends) off the long bones to expose the bone marrow filled cavity. Each bone cavity was then flushed with 5 mL/bone (mouse) or 10 mL/bone (rat) of ice-cold RPMI media through a […] and collected in a 50-mL conical tube. Cells were spun down at 2,500 × g at 4°C for 5 min and the supernatant was aspirated. After which, bone marrow cells were lysed with 1X red blood cell (RBC) lysis buffer (Abcam, ab204733) to eliminate contaminating RBCs and washed with PBS to remove any residual RBC lysis buffer. The resulting white blood cells (WBC) were subsequently lysed with 1% (v/v) Triton X-100 in PBS. Lysates were added to 96-well plates and stored at −80°C until NSP analyses.
(§4) Bone marrow lysates prepared as described above were diluted and plated onto 96-well assay plates to quantify NSP activities as described previously ([Basso et al., 2022]). Briefly, peptide substrates for NE (N-Methoxysuccinyl-Ala-Ala-Pro-Val-7-amido-4-methylcoumarin; Sigma; St. Louis, MO; Excitation/Emission at 350/450 nm), PR3 ((7-Methoxycoumarin-4-yl)acetyl-lysyl-(picolinoyl)-Tyr-Asp-Ala-Lys-Gly-Asp-N-3-(2-4-dinitrophenyl)-2-3-diaminopropyonyl-NH2); GenScript; Piscataway, NJ; Excitation/Emission at 340/430 nm), and CatG (N-Succinyl-Ala-Ala-Pro-Phe p nitroanilide; Sigma; Absorbance at 405 nm) were added at a final assay concentration of 100 μM, 40 μM, and 200 μM, respectively, and either fluorescence or absorbance was quantified using a Synergy microplate reader (BioTek; Winooski, VT). The specific NSP activity in each sample was calculated as the total activity minus the activity in the presence of a specific NSP inhibitor (if used), including elastase inhibitor (Abcam) for NE, sivelestat (Abcam) for PR3, and cathepsin G inhibitor I (Cayman Chemical; Ann Arbor, MI) for CatG. NSP concentrations were interpolated based on their activities relative to the standard curves created using active human NE protein (Sigma), active human PR3 protein (Sigma), and active human CatG protein (Sigma), respectively. Due to unavailability of commercial mouse and/or rat NE, PR3, and CatG proteins, the corresponding human proteins were used instead since their catalytic ability is considered to be conserved across species. A portion of each cell lysate sample was retained for protein quantification using a Pierce™ BCA Protein Assay Kit (Thermo Fisher). The NSP activities were normalized for the cell lysate protein concentrations.
(§5) The Pierce™ BCA Protein Assay Kit was used to measure the total protein of the samples after lysis to allow for subsequent normalization. […]

PR3 = assay: Bone marrow PR3 activity after repeated dosing, C57BL/6 mice; assay type: in vivo; details: for Reduction of PR3 activity vs vehicle / Change From Vehicle Control (%) PR3: 7 days
Procedure: as §1, §2, §3, §4, §5

CatG [2] = assay: Bone marrow CatG activity after repeated dosing, BALB/c mice; assay type: in vivo; details: for Reduction of CatG activity vs vehicle / Change From Vehicle Control (%) CatG: 7 days
Procedure: as §1, §2, §3, §4, §5

CatG [3] = assay: Bone marrow CatG activity after repeated dosing, Sprague Dawley rats; assay type: in vivo; details: for Reduction of CatG activity vs vehicle / Change From Vehicle Control (%) CatG: 9 days
Procedure: as §1, §2, §3, §4, §5

NE [4] = assay: PD onset study, bone marrow NE activity, C57BL/6 mice; assay type: in vivo; details: for Percent change from vehicle NE: bone marrow, 5 mg/kg BID oral
Procedure: A 14-day PD onset study was performed in female C57BL/6 mice dosed BID. Mice were dosed by oral gavage either with vehicle (0 mg/kg) or 5 mg/kg brensocatib (BID; 10 mg/kg/day) for 1, 4, 7, 10, or 14 consecutive days. Plasma was collected from animals during the first 24 h of dosing at 1, 2, 8, 9, 10, and 24 h post the initial dose. Note the 8- and 24-h plasma samples were prior to the afternoon dose and the second day dose (if applicable), respectively. Plasma was used for PK analysis via LC-MS/MS. On prescribed days, animals were sacrificed 16 h post final dose, and the hind bones (femurs and tibias) were collected at necropsy for bone marrow analysis of NSP activities by kinetic enzymatic assays.
as §3, §4
The Pierce™ BCA Protein Assay Kit was used to measure the total protein of the samples after lysis to allow for subsequent normalization. The manufacturer’s instructions for use were followed when performing this assay on a portion of the sample lysates which were diluted in PBS, the same diluent as used for preparation of the standard. Plates were read on the Biotek Synergy plate reader with Gen5 software.

NE [5] = tested on: NE; parameters: method as in Chalmers et al., 2020; details: Phase 2 trial in NCFBE (WILLOW, NCT03218917), vs placebo; ref Chalmers et al., 2020; cited from earlier work
[6] = BID highest dose (20 mg/kg/day)
[7] = oral BID 0.5 mg/kg/day, 16 h post final dose
[8] = oral BID 2 mg/kg/day, 16 h post final dose
[9] = oral BID 20 mg/kg/day, 16 h post final dose
[10] = oral QD 0.75 mg/kg/day, 24 h post final dose
[11] = oral QD 3 mg/kg/day, 24 h post final dose
[12] = oral QD 30 mg/kg/day, 24 h post final dose
[13] = highest dose level 20/30 (BID/QD) mg/kg/day
[14] = 5 mg/kg BID, curve fit with free min and max

Cn1c(=O)oc2ccc(-c3ccc(C[C@@H](C#N)NC(=O)[C@@H]4CNCCCO4)cc3)cc21 [brensocatib]
Reduction of NE activity vs vehicle (NE [1]; [6]): 85% | Reduction of NE activity vs vehicle (NE [1]; QD highest dose (30 mg/kg/day)): 71% | Change From Vehicle Control (%) NE (NE [1]; [7]): −20% (p = 0.1494) | Change From Vehicle Control (%) NE (NE [1]; [8]): −71% (p < 0.0001) | Change From Vehicle Control (%) NE (NE [1]; [9]): −85% (p < 0.0001) | Change From Vehicle Control (%) NE (NE [1]; [10]): −9% (p = 0.8092) | Change From Vehicle Control (%) NE (NE [1]; [11]): −55% (p < 0.0001) | Change From Vehicle Control (%) NE (NE [1]; [12]): −71% (p < 0.0001) | Reduction of PR3 activity vs vehicle (PR3; [6]): 80% | Reduction of PR3 activity vs vehicle (PR3; QD highest dose (30 mg/kg/day)): 65% | Combined BID and QD percent reduction, PR3 (PR3; [13]): 71% | Change From Vehicle Control (%) PR3 (PR3; [7]): 9% (p = 0.8059) | Change From Vehicle Control (%) PR3 (PR3; [8]): −44% (p = 0.0041) | Change From Vehicle Control (%) PR3 (PR3; [9]): −80% (p < 0.0001) | Change From Vehicle Control (%) PR3 (PR3; [10]): +2% (p = 0.9977) | Change From Vehicle Control (%) PR3 (PR3; [11]): −46% (p = 0.0008) | Change From Vehicle Control (%) PR3 (PR3; [12]): −65% (p < 0.0001) | Reduction of CatG activity vs vehicle (CatG [2]; [6]): 92% | Reduction of CatG activity vs vehicle (CatG [2]; QD highest dose (30 mg/kg/day)): 84% | Combined BID and QD percentage reduction, CatG (CatG [2]; [13]): 88% | Change From Vehicle Control (%) CatG (CatG [2]; oral BID 0.2 mg/kg/day, 16 h post final dose): −1% (p = 0.9993) | Change From Vehicle Control (%) CatG (CatG [2]; [8]): −36% (p = 0.0165) | Change From Vehicle Control (%) CatG (CatG [2]; [9]): −92% (p < 0.0001) | Change From Vehicle Control (%) CatG (CatG [2]; oral QD 0.3 mg/kg/day, 24 h post final dose): −2% (p = 0.9983) | Change From Vehicle Control (%) CatG (CatG [2]; [11]): −39% (p = 0.0058) | Change From Vehicle Control (%) CatG (CatG [2]; [12]): −84% (p < 0.0001) | Reduction of CatG activity vs vehicle (CatG [3]; [6]): 37% | Reduction of CatG activity vs vehicle (CatG [3]; QD highest dose (30 mg/kg/day)): 43% | Combined BID and QD percent reduction, CatG (CatG [3]; [13]): 40% | Change From Vehicle Control (%) CatG (CatG [3]; oral BID 0.2 mg/kg/day): +4% (p = 0.9857) | Change From Vehicle Control (%) CatG (CatG [3]; oral BID 2 mg/kg/day): +2% (p = 0.9972) | Change From Vehicle Control (%) CatG (CatG [3]; oral BID 20 mg/kg/day): −37% (p = 0.0420) | Change From Vehicle Control (%) CatG (CatG [3]; oral QD 0.3 mg/kg/day): −9% (p = 0.9235) | Change From Vehicle Control (%) CatG (CatG [3]; oral QD 3 mg/kg/day): −13% (p = 0.8203) | Change From Vehicle Control (%) CatG (CatG [3]; oral QD 30 mg/kg/day): −43% (p = 0.0348) | Onset: Maximum reduction (plateau), NE (NE [4]; [14]): 80% | Onset: Time to reach 50% reduction, NE (NE [4]; [14]): 4.3 days | Onset: Time to reach max reduction, NE (NE [4]; [14]): 6.4 days | Percent change from vehicle NE (NE [4]; after 1 day of treatment): −28% (p = 0.0826) | Percent change from vehicle NE (NE [4]; after 4 days of treatment): −59% (p < 0.0001) | Percent change from vehicle NE (NE [4]; after 7 days of treatment): −83% (p < 0.0001) | Percent change from vehicle NE (NE [4]; after 10 days of treatment): −76% (p < 0.0001) | Percent change from vehicle NE (NE [4]; after 14 days of treatment): −82% (p < 0.0001) | sputum NE activity (NE [5]): dose-dependent reduction
